Patent US11952610B2, “Digital microbiology” (priority 2016, dated 2024)
Values after ≈ are worked out from the molar mass of the structure shown. “Also recorded” adds a separate entry of the source. Where two headings read alike, the source gives them in different places.

Assays:
C. albicans ATCC®24433™ [1] = settings: cited from earlier work
C. albicans ATCC®24433™ [2] = test: Antifungal susceptibility testing in water-in-oil droplets, microscope reading; format: cell-based, Candida albicans
Procedure: (§1) (at 30° C. for the C. albicans).

[3] = test system: Escherichia coli (ATCC®25922™); test: Antimicrobial susceptibility testing in water-in-oil droplets, microscope reading; format: cell-based; settings: for MIC: Escherichia coli, read-out: Observed MIC
Procedure: as §1

E. coli ATCC®25922 = settings: cited from earlier work
MRSA ATCC 49476 = test: Droplets with labeled fibrinogen, BSA +/- cefoxitin: growth and labeling; format: cell-based, Staphylococcus aureus
Procedure: (§2) Fibrinogen (Sigma Aldrich) that binds to Staphylococcus aureus (S. aureus cells express surface proteins that promote attachment to host proteins such as fibronectin) was labeled using Kit Lynx LNK174PETR (Abd Serotec). […] After incubation at 37° C. for 3 hours, the samples were read using the ZOE™ Fluorescent Cell Imager (Bio-Rad Laboratories). The tables below show growth (visible) and labeling (fluorescence) obtained for the tested strains of MSSA and MRSA.

MSSA ATCC 29213 = test: as above; format: cell-based, Staphylococcus aureus
Procedure: as §2

MRSA ATCC BAA 2312 = test: as above; format: cell-based, Staphylococcus aureus
Procedure: as §2

MSSA ATCC 6538 = test: as above; format: cell-based, Staphylococcus aureus
Procedure: as §2

[4] = test system: Penicillium hirsutum ATCC 16025; test: Inhibition of mold growth outside the droplet aqueous phase, antifungal in oil phase; format: cell-based; settings: 0.5 mg/L in the oil phase, 48 hours
[5] = ATCC25922, droplets at 37° C., read after 4 and/or 6 h
[6] = conjugate 1/200, BSA 0 + FOX 0, 3 h at 37° C.
[7] = conjugate 1/200, BSA 2.5% + FOX 0, 3 h at 37° C.
[8] = conjugate 1/200, BSA 2.5% + FOX 2 mg/L, 3 h at 37° C.
[9] = conjugate 1/200, BSA 0 + FOX 2 mg/L, 3 h at 37° C.

Molecule: OC(Cn1cncn1)(Cn1cncn1)c1ccc(F)cc1F [Fluconazole]
- Expected MIC (CLSI) (C. albicans ATCC®24433™ [1]): 0.25 to 1 µg/mL
- Growth in % of droplets (C. albicans ATCC®24433™ [2]; 1 mg/L, reading time 6 h): Growth in 15-20%
- Growth in % of droplets (C. albicans ATCC®24433™ [2]; 2 mg/L, reading time 4 h): Growth in 15-20%
- Growth in % of droplets (C. albicans ATCC®24433™ [2]; 2 mg/L, reading time 6 h): Growth in 15-20%
- Growth in % of droplets (C. albicans ATCC®24433™ [2]; 4 mg/L, reading time 4 h): ~15% of droplets
- Growth in % of droplets (C. albicans ATCC®24433™ [2]; 4 mg/L, reading time 6 h): Growth in 15-20%
- Growth in droplets (observation in words) (C. albicans ATCC®24433™ [2]; 8 mg/L, reading time 4 h): Limited growth
- Growth in droplets (observation in words) (C. albicans ATCC®24433™ [2]; 8 mg/L, reading time 6 h): Limited growth
- Growth in droplets (observation in words) (C. albicans ATCC®24433™ [2]; 16 mg/L, reading time 4 h): Limited growth
- Growth in droplets (observation in words) (C. albicans ATCC®24433™ [2]; 16 mg/L, reading time 6 h): Limited growth
- Growth in droplets (observation in words) (C. albicans ATCC®24433™ [2]; 32 mg/L, reading time 4 h): Limited growth
- Growth in droplets (observation in words) (C. albicans ATCC®24433™ [2]; 32 mg/L, reading time 6 h): Limited growth
- Growth in droplets (observation in words) (C. albicans ATCC®24433™ [2]; 64 mg/L, reading time 4 h): Limited growth
- Growth in droplets (observation in words) (C. albicans ATCC®24433™ [2]; 64 mg/L, reading time 6 h): Limited growth

Molecule: CN(C)[C@@H]1C(O)=C(C(N)=O)C(=O)[C@@]2(O)C(O)=C3C(=O)c4c(O)cccc4[C@@](C)(O)[C@H]3C[C@@H]12 [Tetracycline]
- Growth in % of droplets ([3]; 0.25 mg/L, reading time 6 h): Growth in 20-30% of
- MIC [3, 5]: 0.5 µg/mL (≈ 1.13 µM)

Molecule: CCN1CCN(C(=O)N[C@@H](C(=O)N[C@@H]2C(=O)N3[C@@H]2SC(C)(C)[C@@H]3C(=O)O)c2ccccc2)C(=O)C1=O [Piperacillin]
- Growth in droplets (observation in words) ([3]; 1 mg/L, reading time 4 h): Limited growth in droplets with cells forming filaments
- Growth in droplets (observation in words) ([3]; 2 mg/L, reading time 4 h): No growth
- MIC [3, 5]: 2 µg/mL (≈ 3.86 µM)
- Expected MIC (CLSI) (E. coli ATCC®25922): 1 to 4 µg/mL

Molecule: CCn1cc(C(=O)O)c(=O)c2ccc(C)nc21 [Nalidixic acid]
- Growth in % of droplets ([3]; 1 mg/L, reading time 6 h): Growth in about 50% of
- Growth in droplets (observation in words) ([3]; 2 mg/L, reading time 6 h): One or few small
- Growth in droplets (observation in words) ([3]; 4 mg/L, reading time 4 h): One or few small
- Growth in droplets (observation in words) ([3]; 4 mg/L, reading time 6 h): No growth
- MIC ([3]; ATCC25922, 6 h): 4 µg/mL (≈ 17.2 µM)
- Expected MIC (CLSI) (E. coli ATCC®25922): 1 to 4 µg/mL

Molecule: Fibrinogen
- Labeling (fluorescence) (MRSA ATCC 49476; [6]): Fluo +++
- Labeling (fluorescence) (MRSA ATCC 49476; [7]): Fluo +++
- Labeling (fluorescence) (MRSA ATCC 49476; [8]): Fluo +++
- Labeling (fluorescence) (MSSA ATCC 29213; [6]): Fluo ++
- Labeling (fluorescence) (MSSA ATCC 29213; [9]): BN (+)
- Labeling (fluorescence) (MSSA ATCC 29213; [7]): Fluo +++
- Labeling (fluorescence) (MSSA ATCC 29213; [8]): BN (+)
- Labeling (fluorescence) (MRSA ATCC BAA 2312; [6]): BN (+)
- Labeling (fluorescence) (MRSA ATCC BAA 2312; [9]): BN (+)
- Labeling (fluorescence) (MRSA ATCC BAA 2312; [7]): Fluo +++
- Labeling (fluorescence) (MRSA ATCC BAA 2312; [8]): Fluo +++
- Labeling (fluorescence) (MSSA ATCC 6538; [6]): Fluo +++
- Labeling (fluorescence) (MSSA ATCC 6538; [9]): BN (+)
- Labeling (fluorescence) (MSSA ATCC 6538; [7]): Fluo +++
- Labeling (fluorescence) (MSSA ATCC 6538; [8]): BN (+)

Molecule: Gentamycin
- Growth in % of droplets ([3]; 0.125 mg/L, reading time 4 h): ~50% of the droplets
- Growth in % of droplets ([3]; 0.25 mg/L, reading time 4 h): 30-50% of droplets
- Growth in % of droplets ([3]; 0.5 mg/L, reading time 4 h): ~30% of droplets
- Growth in % of droplets ([3]; 0.5 mg/L, reading time 6 h): 30-50% of droplets
- Growth in droplets (observation in words) ([3]; 2 mg/L, reading time 4 h): No growth
- Growth in droplets (observation in words) ([3]; 2 mg/L, reading time 6 h): No growth
- Observed MIC ([3]; droplets at 37° C., read after 4 and/or 6 h): 2 µg/mL
- Expected MIC (CLSI) (E. coli ATCC®25922): 0.25 to 1 µg/mL

Molecule: C=CCOC(Cn1ccnc1)c1ccc(Cl)cc1Cl (racemic) [Imazalil, (RS)-1-[2-(allyloxy)-2-(2,4-dichlorophenyl)ethyl]-1H-imidazole]
- Mold growth outside the aqueous phase [4]: the hyphae spreading was inhibited and mold growth was confined within the droplet; also recorded: inhibition of mold growth outside the aqueous phase
